“Also recorded” adds a separate entry of the source. Read-outs that look alike come from different tables or passages of the source.
Columns and labels:
[1] = tested on: L. donovani (MHOM/SD/62/1S-CL2D, LdBOB) axenic amastigotes; test: Leishmania donovani axenic amastigote dose response assay (resazurin); format: cell-based
[2] = target: T1, LmjFIPCS (Leishmania major, UniProt E9AFX2); test: Biochemical LmjFIPCS assay with CHAPS-washed microsomal membranes; details: for IC50: read-out: pIC50 against LmjFIPCS in vitro (converted)
T1 construct: The complete open reading frames of LmjFIPCS and AUR1p was amplified from genomic DNA; made in house
Protocol: Utilizing the availability of an in-house designed and validated biochemical assay for LmjFIPCS[19],[22], following re-synthesis in the free-base form (Aptuit, Verona, Italy) the two benzazepane hits were biochemically analyzed in a dose response assay (8 compound concentrations between 100 μM and 46 nM; Fig. 5). […].
Microsomal material was prepared and CHAPS washed from α ade^−.lys^−.leu^−.Δaur1^−.pESC-LEU_ LmjFIPCS as previously described[19],[22]. Briefly, each compound at the desired concentration was incubated, in at least triplicate, in 96-well plates (Corning) in phosphate buffer (71.4 mM, pH 7.0) with PI (100 µM, final concentration, Avanti Polar Lipids), CHAPS (600 µM, Sigma-Aldrich) and CHAPS-washed microsomal membranes (0.6 U enzyme per reaction) for 15 minutes at 30 °C. NBD-C6-ceramide (5 µM; ThermoFisher) was added, final volume of 40 µl per well, and the plates incubated at 30 °C for a further 25 minutes. […]. Analyses were carried out using GraphPad Prism 7.

[3] = tested on: intra-macrophage Leishmania donovani amastigotes; test: Intramacrophage Leishmania donovani assay (high content imaging); format: cell-based; details: for IC50: Leishmania donovani
[4] = tested on: L. major (MHOM/IL/81/Friedlin) wild type; test: L. major axenic cell assay (alamarBlue), wild type; format: cell-based; details: Leishmania major; −logIC50 M; 72 hours; read-out: pIC50 against wild type Leishmania major (converted)
Text: (§1) However, whilst compound 1 was antiprotozoal and a potent IPC synthase inhibitor, it was unclear whether the mode of action was on-target. To analyze this further, the in-house availability of a sphingolipid mutant L. major (Δlcb2) was exploited. This line[24] lacks serine palmitoyltransferase activity, and whilst LmjFIPCS is still present it is redundant in the absence of in situ substrate. […] […]. Therefore, it is likely that off-target activity has a role in the antileishmanial activity of this benzazepane.
(§2) From a previously described protocol, L. major (MHOM/IL/81/Friedlin, wild type and ΔLCB2 mutant)[24] were added to 96-well plates (Corning) at 1 × 10^4 ml^−1 in growth media with appropriate concentrations of compounds and controls (vehicle and assay media alone, with the robustness of the platform indicated by Z’ values > 0.5)[29] in 100 µl. […]. Analyses were carried out using GraphPad Prism 7.

[5] = tested on: L. major Δlcb2 mutant; test: L. major axenic cell assay (alamarBlue), sphingolipid mutant Δlcb2; format: cell-based; details: Leishmania major, 72 h, read-out: pIC50 against L. major Δlcb2 mutant (converted)
Text: as §1, §2

[6] = tested on: THP-1 macrophages; test: Host cell toxicity in the intramacrophage assay; format: cell-based, human; details: for IC50: Homo sapiens, THP-1 host cells in intramacrophage assay, read-out: pIC50 THP-1 (converted); for pSI v THP-1: selectivity: pIC50 InMac minus pIC50 THP-1
[7] = tested on: HepG2 cells; test: Mammalian cell cytotoxicity assay (CellTiter-Glo); format: cell-based, human; details: for IC50: Homo sapiens, -logIC50 mol against HepG2, read-out: PIC50 HepG2 (converted); for pSI v HepG2: selectivity: pIC50 axenic minus pIC50 HepG2
[8] = target: T2, in cellulo LmjFIPCS (Leishmania major, UniProt E9AFX2); test: In cellulo IPC synthase assay (BODIPY FL C5-ceramide incorporation into IPC, HPTLC); format: cell-based; details: L. major ΔLCB2, 10 μM of compound, compared with compound 1
T2 construct: endogenous in cells; host or cells: L. major (MHOM/IL/81/Friedlin) Δlcb2 mutant
Protocol: Figure 7 In cellulo activity against LmjFIPCS. […] L. major ΔLCB2 treated with 10 μM of compound prior to metabolic labelling with BODIPY FL C5-ceramide. Inhibition of the incorporation of label into IPC was measured following HPTLC in comparison with a control (vehicle treated). […]. P = 0.006 in students’ t-test indicating the difference is significant (**≤ 0.01).
The L. major Δlcb2 mutant, maintained in Schneider’s media (Sigma-Aldrich) with 15% sera (ThermoFisher), were washed and 200 µl, at 1 × 10^7 ml^−1, incubated in serum free media for 60 minutes at 26 °C before the addition of 10 µM of the compounds, in at least triplicate, and further incubation for 18 hours. Subsequently, the reaction was initiated by the addition of BODIPY FL C5-ceramide complexed to BSA (1.25 µl of 0.5 mM, ThermoFisher). Following further incubation at 26 °C for 1 hour, the lipids were extracted by phase separation in chloroform:methanol:water (10:10:3, 200 µl) and fractionated on HTPLC plates, as previously. The fluorescence was read at Ex475/Em520 using a Fuji FLA-3000 plate reader and AIDA Image Analyser software (version 3.52).

[9] = −logIC50 M, 72 hours, read-out: pIC50 against axenic L. donovani amastigotes (converted)
[10] = −logIC50 M, biochemical assay, at least 3 independent experiments
[11] = −logIC50 M, L. donovani infected THP-1 macrophages, 96 hours, read-out: pIC50 against intra-macrophage L. donovani amastigotes (converted)
[12] = -logIC50 mol against L. donovani (LdBOB) axenic amastigotes, read-out: pIC50 Axenic (converted)
[13] = intramacrophage L. donovani, read-out: pIC50 InMac (converted)

T1 sequence (E9AFX2 whole entry): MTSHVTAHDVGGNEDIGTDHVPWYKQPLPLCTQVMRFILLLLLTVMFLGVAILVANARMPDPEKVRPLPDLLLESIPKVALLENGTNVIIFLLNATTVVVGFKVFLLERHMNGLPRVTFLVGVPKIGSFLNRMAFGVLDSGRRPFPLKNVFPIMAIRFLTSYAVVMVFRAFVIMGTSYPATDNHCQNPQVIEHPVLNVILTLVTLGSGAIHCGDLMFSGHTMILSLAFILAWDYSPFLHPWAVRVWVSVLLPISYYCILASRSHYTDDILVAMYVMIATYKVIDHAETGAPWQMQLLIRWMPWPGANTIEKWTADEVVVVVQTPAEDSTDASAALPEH
T2 sequence (E9AFX2 whole entry): as above

| SMILES | IC50 [2, 10] | IC50 [1, 12] | IC50 [6] | pSI v THP-1 [6] | IC50 [7] | pSI v HepG2 [7] | IC50 [3, 13] | also measured |
| --- | --- | --- | --- | --- | --- | --- | --- | --- |
| O=S(=O)(c1ccc2c(c1)CCN(Cc1cccnc1)CC2)n1ccc2c(F)cccc21 [compound 2] | 6.31 µM |  |  |  |  |  |  | IC50 [1, 9]: 0.398 µM; IC50 [3, 11]: 2 µM |
| O=S(=O)(c1ccc2c(c1)CCN(Cc1cccnc1)CC2)n1cccc1 [compound 6] |  |  |  |  |  |  |  | pIC50 against LmjFIPCS in vitro [2, 10]: lost activity |
| O=S(=O)(c1ccc2c(c1)CCN(Cc1ccc(F)cc1)CC2)n1cccc1 [compound 1] | 0.158 µM |  |  |  |  |  |  | IC50 [4]: 3.16 µM; IC50 [1, 9]: 0.0251 µM; IC50 [3, 11]: 3.16 µM; IC50 [5]: 3.16 µM |
| O=C(NC1CCN(Cc2ccc(Cl)s2)CC1)N1CCc2cc(Cl)ccc21 [ST/1291407] |  | 2.88 µM | 6.03 µM | 0.46 | 67.6 µM | 1.37 | 2.09 µM |  |
| Cc1ccnc(-c2nn[nH]c2Br)c1 [LK45855-125A1] |  | 1.74 µM | 32.4 µM | -0.01 | > 100 µM | 1.76 | 33.1 µM |  |
| O=C(Nc1scc(-c2ccc(Br)cc2)c1C(=O)O)c1ccccc1F [ST/656010] |  | 8.32 µM | > 50.1 µM | 0.00 | > 100 µM | 1.08 | > 50.1 µM |  |
| O=S(=O)(c1ccc2c(c1)CCN(Cc1ccc(F)cc1)CC2)n1ccc2c(F)cccc21 [compound 7] | 0.0631 µM |  |  |  |  |  |  | IC50 [4]: 3.16 µM; in cellulo inhibition of IPC synthase activity (incorporation of BODIPY FL C5-ceramide into IPC) [8]: considerably greater in cellulo inhibition of IPC synthase activity than compound 1; also recorded: greater activity against in cellulo LmjFIPCS than compound 1; maximal inhibition of LmjFIPCS in vitro ([2]; even at higher concentrations): ≤ 60%; pIC50 against intra-macrophage L. donovani amastigotes ([3]; −logIC50 M, L. donovani infected THP-1 macrophages, 96 hours): lost; IC50 [5]: > 10 µM |

— paper PMC5834442, “Identifying inhibitors of the Leishmania inositol phosphorylceramide synthase with antiprotozoal activity using a yeast-based assay and ultra-high throughput screening platform” (Scientific Reports, 2018)
